No end group written: not given here.
Experiments:
L6-GLUT4myc cells = test: Cell viability / cell death seen in the GLUT4 translocation experiment; type: cell-based, rat; settings: synthetic peptide 200 μM, 3 hours
Protocol: (§1) L6-GLUT4myc cells were serum-starved for three hours prior to incubation with 100 nM of insulin for 30 mins, or 200, 20, 2.0 and 0.2 μM of SP, and 2, 1, 0.5 and 0.25 mg/ml of peptide composition for 3 hours respectively. A 3 hour incubation period was selected based on previous findings identifying that incubation with branch chain amino acid containing di-peptides for 3 hours increases glucose uptake in L6 myotubes 1. Treatments were staggered in order to determine GLUT4myc translocation at the same time point.

GLUT4 = test: Measurement of GLUT4myc translocation in L6 myotubes (antibody-coupled colorimetric assay); type: cell-based, rat; settings: L6-GLUT4myc cells
Text: We determined the effect of six synthetic peptides (SP1-6) and four peptide compositions on in vitro GLUT4 translocation using the L6 rat skeletal muscle cell line. A clone of the L6 cell line containing overexpression of GLUT4 tagged with a c-myc epitope (courtesy of Prof. Amira Klip, Hospital for Sick Children, Toronto) was used to investigate the efficacy of each synthetic peptide and peptide composition for effects on GLUT4 translocation in a dose-response design.
L6-GLUT4myc cells were grown in 10% FBS and 2 μg/ml blasticidin. Cells were grown for 48-72 hours before being seeded in 24-well plates at 15,000 cells per well in 2% FBS and allowed to differentiate for 6 to 8 days prior to experimentation.
as §1
The quantity of myc-tagged GLUT4 at the cell surface was measured by antibody-coupled colorimetric assay. Briefly, after incubation with either insulin for 30 mins or synthetic peptide or peptide composition for 3 hours respectively, L6-GLUT4myc cells were fixed via incubation with 3% paraformaldehyde (PFA). A 0.1 M glycine solution was then added to quench PFA and cells were blocked with 5% goat serum. The myotube monolayer was exposed to anti-myc antibody and then incubated with peroxidase conjugated donkey anti-mouse IgG. 1 mL of o-phenylenediamine dihydrochloride (OPD) reagent was added to each well and this reaction was stopped by adding 250 μl/well of 3 M HCL. To determine GLUT4 translocation to cell surface, a measured aliquot of each condition was determined spectrophotometrically on a plate reader using absorbance at 492 nm. […]

DTFYNAAWDPSNR [SP1, DTFYNAAWDPSNR]
cell viability (L6-GLUT4myc cells): poor cell viability

VLDLAIPVNRPGQL [SP2]
stimulatory effect on skeletal muscle GLUT4 translocation (conclusion of the experiment) (GLUT4; dose-response design): displayed a trend for stimulatory effect | GLUT4 translocation (GLUT4; synthetic peptide 0.2-2 μM, 3 hours): trend for SP2 to increase GLUT4 translocation

insulin [reference compound]
average increase in cell surface GLUT4 translocation compared to untreated control (GLUT4; 100 nM insulin, 30 mins): 1.72 fold
